From patent US20060111289A1, “Compositions and methods of using Alpha-fetoprotein growth inhibitory peptides” (Serometrix, LLC,, priority 2004, published 2006)

How the values were obtained:
[1] = test system: 6WI-1 mammary tumor cells; assay: Mouse ascites mammary tumor assay (6WI-1 isograft); type: in vivo; conditions: for Suppression of accumulation of cells and ascites fluid volume (anticancer activity): 1.0 μg peptide per day for 11 days
Protocol: The growth suppression of the mammary ascites tumor by AFP peptides and its fragments P149a, P149b and P149c, and control peptides were determined in non-estrogen dependent assays which measured tumor cell growth and ascites accumulation of 6WI-1 mammary transplanted NYLAR/nya mice. […] Tumor cell inocula included doses of 0.3, 1.0, and 3.0×10^6 cells which produced host mortality at 12-14 days which was lethal in 100% of the animals. Following peptide dose titration studies, mice inoculated with 6WI-1 mammary cells were injected with a previously-determined optimal dose of 1.0 μg peptide per day or saline for 11 days. On day 12 following inoculation, the total accumulated ascites fluid volume and tumor cells in the peritoneal cavity of each animal were harvested and the cell count determined.
Inoculation of mice with all three cell doses led to an increase in body weight from 25 g (day 0) to approximately […] by day 12, due to the accumulation of tumor cells and ascites fluid in the intraperitoneal cavity. An average cell count in accumulated ascites fluid on day 12 was greater than 10^8 cells/ml with a total ascites volume approximating 20 mls. Tumor cell proliferation in this model has been reported to correlate with the volume of ascites fluid accumulated.
The 6WI-1 mouse mammary tumor studies involving peptide and non-peptide treatment were further compared by histopathological analysis performed on hematoxylin/eosin stained tissue sections.

[2] = test system: 6WI-1 mammary tumor cells; assay: 6WI-1 mammary tumor in 15-day old mouse pups (6 day assay); type: in vivo; design: % Inhibition Of Activity: 6WI-1 Pup Ascites: concentration or dose not given beside the values; conditions: mouse pups
Source text: As an alternative model of the 6WI-I mammary tumor in adult mice, an inocula of 1×10^6 tumor cells injected into 15-day old mouse pups provided a 6 day rather than a 12 day assay and replicated the same tumor growth suppression by GIP.

MCF-7 cells = assay: Estrogen-dependent MCF-7 foci formation assay; type: cell-based, human; design: % Inhibition Of Activity: MCF-7 foci formation: concentration or dose not given beside the values
Source text: Mizejewski et al., “Alpha-fetoprotein derived synthetic peptides: assay of an estrogen-modifying regulatory segment” Mol Cell Endocrinol 118:15-23 (1996). The P149 peptide inhibited the formation of tumor cell foci formed as a result of the accumulation of breast cancer cells which clump together due to loss of contact inhibition.

human platelets = assay: Platelet aggregation in human platelet-rich plasma; type: cell-based; design: % Inhibition Of Activity: Platelet Agg. ADP / % Inhibition Of Activity: Platelet Agg. AA / % Inhibition Of Activity: Platelet Agg. Coll: concentration or dose not given beside the values
Protocol: FIG. 9 presents exemplary data showing platelet aggregation modulation using 0.5 ml of normal human platelet-rich plasma (PRP) with varying amounts of P149 or P 149b using 2.5×10^6 platelets per reaction vessel.
FIG. 10 presents exemplary data showing platelet aggregation activation by arachidonic acid (AA) and collagen using P149-treated platelet suspensions • Panel A1: AA alone; • Panel A2: AA followed by epinephine (EPI) and EPI alone using P149b; • Panel A3: CD62P flow cytometry fluorescence quenching by P149; • Panel B1: collagen alone and collagen+P149; • Panel B2: collagen alone; collagen+P149a showing aggregation diminution.
GIP-derived peptide fragments and/or subfragments have been assayed for platelet aggregation by measuring light transmissions with an aggregometer using a stirred human platelet suspension. Kinlough-Rathbone et al., In: Platelet Aggregation in Measurements of Platelet Function, Eds. Harker L A, Zimmerman T S., Churchill Livingstone, London. pp. 64-87 (1983); and Whittle et al., “Specificity between the anti-aggregatory actions of prostacyclin, prostaglandin Eland D2 on platelets” In: Mechanisms of stimulus—response coupling in platelets, Eds. V. V. K., MacIntyre D E, Scully M F., New York and London: Plenum Press. pp. 109-115 (1985).
The ability of GIP and its fragments were individually examined for aggregation inhibition using citrated human platelet-rich plasma (PRP). The peptides were freshly dissolved in 0.15 M NaCl containing 2.5×10^6 platelets/ml. […]

[3] = test system: immature mouse uterine growth; assay: E2-activated immature mouse uterine growth assay; type: in vivo; design: % Inhibition Of Activity: Uterine Growth: concentration or dose not given beside the values; conditions: mouse, in vivo
Protocol: FIG. 3 presents exemplary data showing the growth suppressive activities of the oligomeric forms of P149, cyclic versus linear, are depicted in various in vitro and in vivo models. Biological activity was determined by three growth-dependent bioassays, namely; • Panel-A and A1) an immature rodent uterine bioassay; • Panel-B and B 1) an in vitro MCF-7 foci assay; • Panel-C and C1) an in vitro tumor cell cytostatic assessment. […] See text for details. Scrambled peptide=P327. […]

[4] = test system: MCF-7 and 6WI-1 tumor cells; assay: Tumor cell adhesion to ECM proteins in microtiter plates; type: cell-based, human, murine
Protocol: FIG. 8 presents exemplary data showing the inhibition of P149 in the cellular adhesion of cancer cells to extracellular matrix (ECM) proteins for both human MCF-7 breast cancer cells and for murine 6WI-1 ascites-adapted mammary tumor cells. The cellular adhesion assay was performed in 96-well microtiter plates (Nunc Company, Denmark, catalog #263339) and the wells were pre-coated with 100 microliters of each of the above-mentioned ECM proteins for 24 hours as previously determined. After adding tumor cells, the plates were then incubated at 37° C. for various times; while 6WI-1 cells usually required only 2-4 hours incubation for adhesion; MCF-7 cells required 24 hours for attachment following trypsinization. For both cell lines, the cell culture media contained 5% calf serum to ensure cell attachment. The plates were washed twice with Hank's Saline, fixed in 0.5 mL of 37% formaldehyde, stained with crystal violet and read at […] on a microplate reader. Inset: Using a CyQUANT® stain kit, (Hoechst Corp., Germany) the plates were first exposed to a freeze/thaw cycle at −70° C. for 24 hours and 37° C. for 10 minutes. CyQUANT® buffer solution (150 microliters) was added to each well, and the cell adhesion was measured by fluorescence spectroscopy and quantitated using an ImageQuant® plate scanner (Fluorimager 595, Molecular Dynamics, Sunnyvale, Calif.).
This attachment of GIP was a slightly weaker adhesion matrix than was gelatin, chondroitin sulfate, and poly-lysine which approximated 30-35%. Using P149, the optimal amount of peptide required to inhibit tumor cell adhesion was determined by absorbing soluble peptide (1.0 pg to 100 μg) to the walls of microtiter plates. A constant number of MCF-7 tumor cells (i.e., for example, 1×10^5) were then added to the microtiter well and adhesion quantitated by fluorescence. […] The quantitation of MCF-7 and 6WI-1 cell adhesion in the presence of peptide versus peptide-free media was then determined on ECM-coated microtiter plates using 3 μg GIP/well as a competitive inhibitor. The P149 peptide was added to the wells immediately after the cells were dispensed and then the mixture was incubated as described. The AFP peptide was capable of cell adhesion inhibition in most of the ECM proteins in both tumor cell lines. Inhibition of mouse and human tumor cell adhesion was somewhat equivalent using collagen IV, fibrinogen, fibronectin, and thrombospondin. […] Thus, the GIP was found capable of eliciting different attachment inhibitions dependent on the type of ECM protein coating the wall of the microtiter plate and also the tumor cell type involved.

Estrogen fetotoxicity = assay: Estrogen fetotoxicity; design: concentration or dose not given beside the values; conditions: in vivo
[5] = test system: human kidney tumor cell line
[6] = test system: immature mouse uterine growth; assay: E2-activated immature mouse uterine growth assay; type: in vivo; design: concentration or dose not given beside the values
[7] = test system: LNCaP human prostate tumor cells; assay: Whole-cell voltage clamp of LNCaP cells; type: cell-based; conditions: 10 μM
Protocol: LNCaP human prostate tumor cells were cultured on 5×5 mm plastic coverslips and were transferred to a microperfusion chamber on the stage of an inverted microscope. Whole-cell voltage clamp was accomplished with an Axopatch 200B (Axon Instr. Co., Union City, Calif.) using ruptured patches. Borosilicate glass capillaries (1.2 mm OD, 0.68 ID, type EN-I, Garner Glass Co., Claremont, Calif.) were used to fabricate patch pipettes (3-8 MΩ in the bath solution) with a Brown-Flaming horizontal micropipette puller (P-87, Sutter Instruments, San Rafael, Calif.). Patch-pipette tips were heat-polished prior to use. A micromanipulator (Narishige) fixed to the microscope positioned the pipettes. Electrode capacitance and access resistance were compensated prior to measurements. All experiments will be performed at room temperature (20-22° C.). The standard extracellular salt solution for ion currents contained (in mM): 150 NaCl, 6 KCl, 1.5 CaCl2, 1 MgCl2, 10 HEPES, 10 glucose, and pH adjusted to 7.4 with 1 N NaOH. […] Electrophysiological recordings were procured and analyzed using PClamp8 software (Axon Instr. Co, Union City, Calif.) and the WinASCD software (Guy Droogmans, Katholieke Universiteit; Leuven, B E). All results were recorded on computer hard drive or on digital audio tape (DAT). […]

[8] = 6WI-1 mouse mammary ascites tumor
[9] = 1 × 10^6 tumor cells I.P., daily injections for eleven days, N = 5

AADIIIGHLCIRHE (listed as Homo sapiens) [P149b]
Suppression of accumulation of cells and ascites fluid volume (anticancer activity) [1]: but not P149a or P149b, significantly suppressed | % Inhibition Of Activity: 6WI-1 Acites Volume [1, 8]: 26% | % Inhibition Of Activity: 6WI-1 Body Weight [1, 8]: 31% | % Inhibition Of Activity: 6WI-1 Cell Prol [1, 8]: 34% | % Inhibition Of Activity: 6WI-1 Pup Ascites [2]: 32% | % Inhibition Of Activity: MCF-7 foci formation (MCF-7 cells): 31% | Inhibition of ADP-induced platelet aggregation (FIG. 9) (human platelets; 0.5 ml PRP, 2.5×10^6 platelets per reaction vessel): 70% | Inhibition of ADP-induced platelet aggregation (human platelets; ADP 3 μM, P149 at 100-300 μM PRP): 80-90% | % Inhibition Of Activity: Platelet Agg. ADP (human platelets; ADP-induced): 95% | % Inhibition Of Activity: Platelet Agg. AA (human platelets; arachidonic acid-induced): 100% | % Inhibition Of Activity: Platelet Agg. Coll (human platelets; collagen-induced): 90% | Inhibition of arachidonic acid (AA)-induced platelet aggregation (human platelets; for several minutes until epinephrine was added): complete aggregation inhibition | Inhibition (%) Of Platelet Aggregation, Adenosine Diphosphate (ADP) 2.5 μM (human platelets; peptide inhibitors 30 & 100 μM): 95-98% | Inhibition (%) Of Platelet Aggregation, Arachidonic Acid (AA) 0.3 mM (human platelets; peptide inhibitors 30 & 100 μM): 100% | Inhibition (%) Of Platelet Aggregation, Collagen (COLL) 2 μg/ml (human platelets; peptide inhibitors 30 & 100 μM): 90% | Inhibition (%) Of Platelet Aggregation, Epinephrine (human platelets; peptide inhibitors 30 & 100 μM): No effect | % Inhibition Of Activity: Uterine Growth [3]: 22% | % Inhibition Of Activity: Cell Adhesion [4]: 58% | % Inhibition Of Activity: Estrogen Fetotoxicty (Estrogen fetotoxicity): 67% | % Inhibition Of Activity: Kidney tumor growth [5]: 50% | % Inhibition Of Activity: Uterine Growth, Enzymatic Fragments [6]: 19%

GINHLPSDAVGTAIEVMPCLRDGKLCIGAEHIEL (listed as Homo sapiens) [P327]
Suppression of accumulation of cells and ascites fluid volume (anticancer activity) [1]: totally lacked anticancer activity | Metastatic histopathological findings: Abdominal Muscle [1, 9]: Focal tumor infiltrate | Metastatic histopathological findings: Gross Findings [1, 9]: Presence of tumor | Metastatic histopathological findings: Kidney [1, 9]: No infiltrate | Metastatic histopathological findings: Liver [1, 9]: No infiltrate | Metastatic histopathological findings: Pancreas [1, 9]: Distinct presence of | Metastatic histopathological findings: Retro-peritoneal mesentery and fat [1, 9]: Extensive tumor infiltrate | Metastatic histopathological findings: Spleen [1, 9]: No infiltrate | Metastatic histopathological findings: Uterus + Ovary [1, 9]: Tumor encased organ | Metastatic tumor infiltration, histopathology summary ([1]; mouse, in vivo): high-to-moderate tumor infiltrates | Whole-cell membrane current [7]: no effect on membrane current
